Laboratory results reported in US5900406A, “Use of antibiotics of the type 2-deoxystreptamine substituted with aminosugars to inhibit growth of microorganisms containing group I introns” (NZYM, Inc., priority 1991, dated 1999).

What was measured:
[1] = test system: td intron (group I intron of the thymidylate synthase gene of phage T4, truncated version); details: td intron self-splicing; read-out: Michaelis constant (Km) for GTP; cited from earlier work
[2] = test system: td intron (group I intron of the thymidylate synthase gene of phage T4, truncated version); assay type: biochemical
Protocol: In vitro-transcribed and gel-purified^8 preRNA from a truncated version of the td intron^21 was incubated in a splicing buffer (50 mM Tris-HCl, pH 7.5, 5 mM MgCl2, 0.4 mM spermidine) for 10 min at 37° C. with GTP and gentamicin as indicated. Samples were separated on 5% acrylamide/7 M urea gels. RNA species are as follows: In-E2, intron-exon 2; L-ln, linear intron; E1-E2, ligated exons; E1, exon 1.
FIGS. 3a-c, Splicing experiments were done with the td intron as described in FIG. 2a, using several members of each family of aminoglycoside antibiotics (gentamicin, kanamycin and neomycin). Structures of the antibiotics can be found in Davies and Yagisaura in Biochemistry and Genetic Function Of Commercially Important Antibiotics, p. 329-354, Addison-Wesley, London, (1983) "Conc" is the antibiotic concentration at which about 50% inhibition was observed.
To monitor the splice process in vitro precursor RNA containing exon1, intron and exon2 was synthesized by in vitro transcription using bacteriophage RNA polymerase. During transcription, a radioactive labeled nucleotide was present in the nucleotide mixture and was incorporated in the RNA. This radioactive labeled RNA was then subjected to splicing conditions and after reaction the RNA splice products were separated from each other by electrophoresis on a denaturing acrylamide gel. The gel was dried and exposed for autoradiography.
Unspliced precursor RNA from the thymidylate synthase gene of the phage T4, which had been transcribed in vitro, and purified as previously described, (Schroeder, R., von Ahsen, U. & Belfort, M. Biochemistry 30, 3295-3303 (1991)) was incubated with increasing amounts of gentamicin under normal splicing conditions.
(§1) Materials and Methods: In vitro splicing experiments were performed with a truncated version of the td gene, containing 79 nt of exon I, 265 nt of intron sequences containing only the catalytic core (delta P6-2) and 21 nt of exon H (Schroeder, von Ahsen, & Belfort, 199 1, Biochemistry 30, 3295). The plasmids containing the Tetrahymena rRNA intron and the yeast mitochondrial cob intron I (the group II intron) were pBGST7 (Been & Cech, 1986, Cell 47, 207) and pBSbIl (Schmelzer and Schweyen, 1986, Cell 46, 557), respectively. The sunY intron is described in Michel et al. (1990, Genes & Development 4, 777). DNA was prepared by the alkaline-lysis procedure and linearized with appropriate restriction enzymes. Transcription was performed in a total volume of 20 μl at 30° C. for one (1) hour in buffer containing 40 mM Tris-HCl pH 7.5, 3 mM MgCl2, 0.4 mM spermidine, 1 mM of each NTP, 5 mM […], 10 units T7 RNA polymerase (Boehringer Mannheim), 10 μCi alpha-^35 S-CTP and 10 units RNAse inhibitor (Boehringer Mannheim). The reaction mixture was loaded on a 5% polyacrylamide/7 M urea gel. Precursor RNA was cut out of the gel and soaked in 400 μl elution buffer (10 mM Tris-HCl pH 7.5, 10 mM EDTA, 3.5 M NH4 OAc, 0.1% SDS) for two hours. After ethanol precipitation, the RNA was dissolved in H2 O-- before splicing experiments were performed the RNA was incubated in splicing buffer (40 mM Tris-HCl pH 7.5, 8 mM MgCl2, 0.4 mM spermidine) for 2 min at 56° C. For splicing of the suny intron and the Tetrahymena intron 50 mM NH4 Cl or 200 mM NaCl were added, respectively. Splicing was initiated by addition of guanosine at the appropriate concentration at 37° C. When splicing was to be inhibited by antibiotic, the antibiotic was added immediately before the guanosine. Splicing reactions were performed at 37° C. for 10'.

[3] = test system: group II bI1 intron (first intron of the yeast mitochondrial apocytochrome b gene); test: In vitro splicing of a group II intron in the presence of aminoglycosides; assay type: biochemical; details: concentrations ≤5 mM
Protocol: FIG. 2c, Precursor -A of the group II bli intron (first intron of the yeast mitochondrial apocytochrome b gene) was incubated in a splicing buffer (40 mM Tris-HCl, pH 7.5, 60 mM MgCl2, 625 mM (NH4)2 SO4, 2 mM spermidine) at 42° C. for 60 min with increasing amounts of gentamicin as indicated. Splicing products were separated as in FIG. 2 A. C is an unincubated control.
(§2) Materials and Methods: In vitro splicing experiments were performed with a truncated version of the td gene, containing 79 nt of exon I, 265 nt of intron sequences containing only the catalytic core (delta P6-2) and 21 nt of exon H (Schroeder, von Ahsen, & Belfort, 199 1, Biochemistry 30, 3295). The plasmids containing the Tetrahymena rRNA intron and the yeast mitochondrial cob intron I (the group II intron) were pBGST7 (Been & Cech, 1986, Cell 47, 207) and pBSbIl (Schmelzer and Schweyen, 1986, Cell 46, 557), respectively. The sunY intron is described in Michel et al. (1990, Genes & Development 4, 777). DNA was prepared by the alkaline-lysis procedure and linearized with appropriate restriction enzymes. Transcription was performed in a total volume of 20 μl at 30° C. for one (1) hour in buffer containing 40 mM Tris-HCl pH 7.5, 3 mM MgCl2, 0.4 mM spermidine, 1 mM of each NTP, 5 mM DTIC, 10 units T7 RNA polymerase (Boehringer Mannheim), 10 μCi alpha-^35 S-CTP and 10 units RNAse inhibitor (Boehringer Mannheim). […]

[4] = test system: group I intron from the ribosomal RNA from Tetrahymena thermophila; test: In vitro splicing inhibition of the Tetrahymena rRNA group I intron; assay type: biochemical; details: read-out: concentration giving 50% inhibition of splicing
Protocol: To see whether this inhibition could be extended to all group I introns, the group I intron from the ribosomal RNA from Tetrahymena thermophila was tested for sensitivity towards gentamicin and again the splice reaction was inhibited. To test the specificity of this interaction of gentamicin with this type of catalytic RNA […]
as §2, with “enzymes.” for “enzymes. Transcription was performed in a total volume of 20 μl at 30° C. for one (1) hour in buffer containing 40 mM Tris-HCl pH 7.5, 3 mM MgCl2, 0.4 mM spermidine, 1 mM of each NTP, 5 mM DTIC, 10 units T7 RNA polymerase (Boehringer Mannheim), 10 μCi alpha-^35 S-CTP and 10 units RNAse inhibitor (Boehringer Mannheim).”

[5] = test system: sunY intron (shortened version, construct SYC1.3); test: In vitro splicing inhibition of the sunY group I intron (GTP incorporation assay); assay type: biochemical, T4-phage
Protocol: as §1, with “DNA” for “Materials and Methods: In vitro splicing experiments were performed with a truncated version of the td gene, containing 79 nt of exon I, 265 nt of intron sequences containing only the catalytic core (delta P6-2) and 21 nt of exon H (Schroeder, von Ahsen, & Belfort, 199 1, Biochemistry 30, 3295). The plasmids containing the Tetrahymena rRNA intron and the yeast mitochondrial cob intron I (the group II intron) were pBGST7 (Been & Cech, 1986, Cell 47, 207) and pBSbIl (Schmelzer and Schweyen, 1986, Cell 46, 557), respectively. The sunY intron is described in Michel et al. (1990, Genes & Development 4, 777). DNA”, “10'. […] Samples were separated on 5% acrylamide/7 M urea gels.” for “10'.”

Compound | Km [1] [µM] | lowest concentration with splicing inhibition activity ([2]; activity at a concentration as low as) [µM] | antibiotic concentration affecting the first step of splicing ([2]; first step affected only at this concentration) [µM] | IC50 ([2]; in vitro splicing, 37° C., 10 min, read-out: concentration giving approximately 50% inhibition of the second splice step of the td intron) [µM] | inhibition of splicing of the group II intron [3] | IC50 [4] [µM] | concentration at which the second step (cleavage at the 3' splice-site and exon ligation) is completely inhibited ([2]; GTP 2.5 μM or 100 μM) [µM] | effect on the first step of splicing ([2]; concentrations ≤2 mM, whatever the guanosine concentration) | concentration to which the sunY intron is sensitive [5] [µM]
Nc1nc2c(ncn2[C@@H]2O[C@H](COP(=O)(O)OP(=O)(O)OP(=O)(O)O)[C@@H](O)[C@H]2O)c(=O)[nH]1 [GTP] | 1 |  |  |  |  |  |  |  | 
NC[C@H]1O[C@H](O[C@H]2[C@H](O)[C@@H](O[C@H]3O[C@H](CO)[C@@H](O)[C@H](N)[C@H]3O)[C@H](N)C[C@@H]2N)[C@H](N)C[C@@H]1O [Tobramycin] |  | 0.5 | 100 | ~0.5 | not inhibited |  |  |  | 
gentamicin |  |  |  |  | not inhibited | ~100 | 2.5 | little effect | 100
